# Measured values reported in patent EP1043318A1 (priority 1997, dated 1999).
# Tested on: M. tuberculosis 16R
# Format: cell-based
# Conditions: strain resistant to control preparations; concentration of the preparation 50.0 g/l (table title); incubated 30 days
row,Structure (SMILES),M. tuberculosis 16R growth
1,CC[C@@H](CO)NCCN[C@@H](CC)CO [Ethambutol],growth
2,NNC(=O)c1ccncc1 [Isoniazid],growth
3,[H]/N=C(/N)N[C@H]1[C@H](O)[C@@H](O)[C@H](O[C@@H]2O[C@@H](C)[C@](O)(C=O)[C@H]2O[C@@H]2O[C@@H](CO)[C@H](O)[C@@H](O)[C@@H]2NC)[C@@H](N/C(N)=N\[H])[C@@H]1O [Streptomycin],growth
4,"O=C1NC(=S)NC(=O)C1C(c1ccc([N+](=O)[O-])cc1)C1C(=O)NC(=S)NC1=O [X, 5,5'-(p-nitrobenzylidene)bis (2-thiobarbituric) acid]",complete suppression of growth
